Measurements published in ChEMBL document CHEMBL5725356, “Anti-fibrotic pyridinones” (2017).

experiment: ET-1 Assay: Fibroblasts (primary human lung and dermal, HFL-1, 3T3 etc) are seeded in 96-well plates at ~15000 cells/well and serum starved for 0-48 hours. After media exchange, compounds serially diluted in DMSO are added to the cells. After a brief incubation of ~30 min, stimulants (TGFb, serum, LPA etc) are added followed by further incubation for 16-48 hours. Media is then harvested and stored frozen in plate format for later endothelin-1 (ET-1) determination by ELISA. Toxicity measurements are made using the ATPlite kit (Perkin-Elmer). ET-1 is quantified using an ELISA kit (R&D Systems). The amount of ET-1 produced in the assay wells are back-calculated using the ELISA standard. The ability of a compound to inhibit ET-1 production is typically analyzed by fitting dose-response curves to a 4-parameter logistic function to obtain an EC50 value.; conditions: HFL1

Row | Compound | EC50
1 | Cc1cc(=O)n(-c2ccc(OC(F)(F)F)cc2)cc1-c1cnsc1 | > 200 µM
2 | O=c1ccc(-c2cn[nH]c2)cn1-c1cccc(F)c1 | > 200 µM
3 | Cc1ccc(=O)n(Cc2ccccc2)c1 | > 200 µM
4 | COc1cc(-n2cc(-c3ccc(F)cc3)c(C)cc2=O)cc(OC)c1OC | in the range around 125 µM
5 | O=c1ccc(-c2ccc(F)cc2)cn1CCc1ccccc1 | in the range around 125 µM
6 | Cc1nc2c(-c3cn[nH]c3)cn(-c3ccc(OC(F)(F)F)cc3)c(=O)c2s1 | < 50 µM
7 | Cc1cc(=O)n(-c2ccc(OC(F)(F)F)cc2)cc1-c1ccc2c(c1)NC(=O)CO2 | < 50 µM
8 | Cc1cc(=O)n(-c2cccc(NC(N)=O)c2)cc1-c1cnn(C)c1 | < 50 µM
9 | O=c1ccc(Br)cn1-c1ccc(F)cc1 | > 200 µM
10 | O=c1cc(Oc2ccccc2)c(-c2ccc(F)cc2)cn1-c1ccc(OC(F)(F)F)cc1 | > 200 µM
11 | CCOc1ccc(-n2cc(-c3cn[nH]c3)ccc2=O)c(C)c1 | < 50 µM
12 | CCn1cnc2c(-c3cnn(C(C)C)c3)cn(-c3ccc(OC(F)(F)F)cc3)c(=O)c21 | < 50 µM
13 | Cc1nc2c(=O)n(-c3ccc(OC(F)(F)F)cc3)cc(-c3cnn(C)c3)c2o1 | < 50 µM
14 | Cc1cc(=O)[nH]cc1-c1ccc2c(c1)OCC(=O)N2C | < 50 µM
15 | Cc1cc(=O)n(-c2ccc(OC(F)(F)F)cc2)cc1-c1ccc2c(ccn2C)c1 | > 200 µM
16 | O=C(NCc1ccccc1)c1cc(=O)n(-c2ccc(OC(F)(F)F)cc2)cc1-c1ccc(F)cc1 | > 200 µM
17 | CC(=O)c1ccc(=O)n(-c2ccc(F)cc2)c1 | > 200 µM
18 | CC(=O)Nc1cccc(-n2cc(-c3cn[nH]c3)c(C)cc2=O)c1 | > 200 µM
19 | CCOC(=O)Nc1cc(=O)n(-c2ccc(OC(F)(F)F)cc2)cc1-c1cnn(C)c1 | > 200 µM
20 | O=c1cc(OCCN2CCS(=O)(=O)CC2)c(-c2ccc(F)cc2)cn1-c1ccc(OC(F)(F)F)cc1 | > 200 µM
21 | Cn1cc(-c2cn(-c3ccc(OC(F)(F)F)cc3)c(=O)cc2OCCN2CCOCC2)cn1 | > 200 µM
22 | CCOc1ccc(-n2cc(-c3c(C)n[nH]c3C)ccc2=O)c(C)c1 | in the range around 125 µM
23 | Cc1cc(=O)n(-c2ccc(OC(F)(F)F)cc2)cc1-c1ccc2cn(C)nc2c1 | in the range around 125 µM
24 | Cc1cc(=O)n(-c2ccc(OC(F)(F)F)cc2)cc1-c1ccc2c(c1)N(C)C(=O)CO2 | < 50 µM
25 | COc1cc(-n2cc(-c3cnn(C)c3)c(C)cc2=O)cc(OC)c1OC | > 200 µM

Row | Compound | EC50
26 | COCCOc1ccc(-n2cc(-c3cnn(C)c3)c(C)cc2=O)cc1 | > 200 µM
27 | CCOc1ccc(-n2cc(-c3ccc4ocnc4c3)c(C)cc2=O)c(C)c1 | in the range around 125 µM
28 | CN1CCC(Oc2cc(=O)n(-c3ccc(OC(F)(F)F)cc3)cc2-c2cnn(C)c2)CC1 | < 50 µM
29 | CCCOC(=O)Nc1cc(=O)n(-c2ccc(OC(F)(F)F)cc2)cc1-c1ccc(F)cc1 | > 200 µM
30 | Cc1cc(=O)n(-c2ccc(Cl)cc2)cc1-c1ccc2scnc2c1 | in the range around 125 µM
31 | Cn1cc(-c2cn(-c3ccc(OC(F)(F)F)cc3)c(=O)cc2NCc2ccccc2)cn1 | < 50 µM
32 | CC(C)c1cc(=O)n(-c2ccc(OC(F)(F)F)cc2)cc1-c1cnn(C)c1 | in the range around 125 µM
33 | CCn1cnc2c(-c3cnn(C)c3)cn(-c3ccc(OC(F)(F)F)cc3)c(=O)c21 | < 50 µM
34 | CCn1c(=O)oc2ccc(-c3cn(-c4ccc(OC(F)(F)F)cc4)c(=O)cc3C)cc21 | > 200 µM
35 | O=c1c2nccnc2c(-c2ccc(F)cc2)cn1-c1ccc(OC(F)(F)F)cc1 | < 50 µM
36 | CC(C)n1nnc2c(-c3cnn(C)c3)cn(-c3ccc(OC(F)(F)F)cc3)c(=O)c21 | < 50 µM
37 | Cc1cc(=O)n(-c2ccc(OC(F)(F)F)cc2)cc1-c1cn(C)nc1C(F)(F)F | in the range around 125 µM
38 | Cn1cc(-c2cn(-c3ccc(OC(F)(F)F)cc3)c(=O)cc2O)cn1 | > 200 µM
39 | O=c1ccc(-c2cncnc2)cn1-c1cccc(F)c1 | > 200 µM
40 | CCOc1ccc(-n2cc(Br)c3nccnc3c2=O)c(C)c1 | < 50 µM
41 | Cn1cc(-c2cn(-c3ccc(OC(F)(F)F)cc3)c(=O)c3nccnc23)cn1 | < 50 µM
42 | Cc1cc(=O)n(-c2ccc3c(c2)OCCO3)cc1-c1ccc(F)cc1 | > 200 µM
43 | Cc1cc(=O)n(-c2ccc(OC(F)(F)F)cc2)cc1-c1cscn1 | in the range around 125 µM
44 | CC(=O)Nc1cccc(-n2cc(-c3ccc(F)cc3)c(Oc3ccccc3)cc2=O)c1 | < 50 µM
45 | CCOc1ccc(-n2cc(-c3cccc(Cl)c3)ccc2=O)c(C)c1 | < 50 µM
46 | C#Cc1ccc(=O)n(-c2ccccc2)c1 | > 200 µM
47 | Cc1cc(=O)n(-c2ccc(OC(F)(F)F)cc2)cc1-c1nn[nH]n1 | > 200 µM
48 | Cn1cc(-c2cn(-c3ccc(OC(F)(F)F)cc3)c(=O)c3nc[nH]c23)cn1 | > 200 µM
49 | CCCCC(=O)Nc1cc(=O)n(-c2ccc(OC(F)(F)F)cc2)cc1-c1ccc(F)cc1 | > 200 µM
50 | CCOc1ccc(-n2cc(-c3ccccc3)ccc2=O)c(C)c1 | in the range around 125 µM

Row | Compound | EC50
51 | Cc1cc(=O)n(-c2ccc(OC(F)(F)F)cc2)cc1-c1ccc(F)c(Cl)c1 | < 50 µM
52 | CCn1nnc2c(-c3cn[nH]c3)cn(-c3ccc(OC(F)(F)F)cc3)c(=O)c21 | < 50 µM
53 | CCOc1ccc(-n2cc(-c3cn[nH]c3)c(C)cc2=O)c(C)c1 | in the range around 125 µM
54 | O=c1ccc(-c2ccccc2)cn1-c1cncnc1 | > 200 µM
55 | COc1cccc(-n2cc(Br)ccc2=O)c1 | > 200 µM
56 | CCOc1ccc(-n2cc(-c3cn[nH]c3)c3ncccc3c2=O)c(C)c1 | < 50 µM
57 | CCOc1ccc(-n2cc(-c3cnn(C)c3)c3c(c2=O)CCCC3)c(C)c1 | < 50 µM
58 | Cc1n[nH]c(C)c1-c1ccc(=O)n(-c2cccc(F)c2)c1 | > 200 µM
59 | Cn1cc(-c2cn(-c3cccc(NC(N)=O)c3)c(=O)cc2Oc2ccccc2)cn1 | < 50 µM
60 | Cn1cc(-c2cn(-c3ccc(OC(F)(F)F)cc3)c(=O)cc2Oc2ccccc2)cn1 | < 50 µM
61 | CCn1nnc2c(-c3ccc(F)cc3)cn(-c3ccc(OC(F)(F)F)cc3)c(=O)c21 | < 50 µM
62 | COc1cc(-n2cc(-c3cn[nH]c3)c(C)cc2=O)cc(OC)c1OC | > 200 µM
63 | CCOc1ccc(-n2cc(C(C)=O)ccc2=O)c(C)c1 | > 200 µM
64 | Cn1cc(-c2cn(-c3ccc(OC(F)(F)F)cc3)c(=O)c3nn(CCF)nc23)cn1 | < 50 µM
65 | Cn1cc(-c2cn(-c3ccc(OC(F)(F)F)cc3)c(=O)cc2Oc2cccc(F)c2)cn1 | < 50 µM
66 | Cc1cc(=O)n(-c2ccc(OC(F)(F)F)cc2)cc1-c1cccc2[nH]c(=O)oc12 | > 200 µM
67 | Cc1cc(=O)n(-c2ccc(OC(F)(F)F)cc2)cc1-c1ccc2nonc2c1 | in the range around 125 µM
68 | CC(=O)N1CCc2c(-c3cnn(C)c3)cn(-c3ccc(OC(F)(F)F)cc3)c(=O)c21 | in the range around 125 µM
69 | CC(C)NC(=O)n1cc(-c2ccc(=O)n(-c3ccccc3)c2)cn1 | in the range around 125 µM
70 | CC(=O)c1ccc(=O)n(-c2ccccc2Cl)c1 | in the range around 125 µM
71 | Cc1cc(=O)n(-c2cccc3c2OCO3)cc1-c1ccc(F)cc1 | in the range around 125 µM
72 | CN1C(=O)COc2c(-c3ccc(F)cc3)cn(-c3ccc(OC(F)(F)F)cc3)c(=O)c21 | > 200 µM
73 | Cn1cc(-c2cn(-c3ccc(OC(F)(F)F)cc3)c(=O)cc2N2CCOCC2)cn1 | < 50 µM
74 | O=c1c2nccnc2ccn1-c1ccc(OC(F)(F)F)cc1 | < 50 µM
75 | Cc1cc(=O)n(-c2cccc(C(F)(F)F)c2)cc1-c1ccc(F)cc1 | in the range around 125 µM

Row | Compound | EC50
76 | Cc1cc(=O)n(-c2ccc(OC(F)(F)F)cc2)cc1-c1ccc2c(c1)OCCO2 | in the range around 125 µM
77 | CCCCOC(=O)n1cc(-c2ccc(=O)n(-c3ccccc3)c2)cn1 | in the range around 125 µM
78 | Cn1cc(-c2ccc(=O)n(-c3ccc(OC(F)(F)F)cc3)n2)cn1 | > 200 µM
79 | O=c1c2ccc(C(F)(F)F)nc2c(-c2ccc(F)cc2)cn1-c1ccc(OC(F)(F)F)cc1 | > 200 µM
80 | Cn1cc(-c2cn(-c3ccc(OC(F)(F)F)cc3)c(=O)c3c2ccn3Cc2ccccc2)cn1 | < 50 µM
81 | CCn1ccc2c(=O)n(-c3ccc(OC(F)(F)F)cc3)cc(-c3ccc(F)cc3)c21 | < 50 µM
82 | CCOc1ccc(-n2cc(-c3ccc(F)cc3)c(OC)cc2=O)c(C)c1 | < 50 µM
83 | Cc1cc(=O)n(-c2cccc(NC(=O)N(C)C)c2)cc1-c1ccc(F)cc1 | < 50 µM
84 | CCCC(=O)Nc1cc(=O)n(-c2ccc(OC(F)(F)F)cc2)cc1-c1ccc(F)cc1 | > 200 µM
85 | Cn1cc(-c2cn(-c3ccc(OC(F)(F)F)cc3)c(=O)cc2Oc2ccccc2Cl)cn1 | < 50 µM
86 | COc1ccc(CNc2cc(=O)n(-c3ccc(OC(F)(F)F)cc3)cc2-c2cnn(C)c2)cc1 | < 50 µM
87 | O=c1c2[nH]nnc2c(-c2cn[nH]c2)cn1-c1ccc(OC(F)(F)F)cc1 | in the range around 125 µM
88 | Cn1cc(-c2cn(-c3ccc(OC(F)(F)F)cc3)c(=O)cc2NCc2ccc(Cl)cc2)cn1 | in the range around 125 µM
89 | Cn1cc(-c2cn(-c3ccc(OC(F)(F)F)cc3)c(=O)c3nnn(CCF)c23)cn1 | < 50 µM
90 | Cc1nc2c(=O)n(-c3ccc(OC(F)(F)F)cc3)cc(-c3cnn(C)c3)c2n1C | in the range around 125 µM
91 | COCCOc1ccc(-n2cc(-c3ccc(F)cc3)c(C)cc2=O)cc1 | in the range around 125 µM
92 | CNC(=O)Nc1cccc(-n2cc(-c3ccc(F)cc3)c(C)cc2=O)c1 | in the range around 125 µM
93 | NS(=O)(=O)c1ccc(-c2ccc(=O)n(-c3cccc(C(F)(F)F)c3)c2)cc1 | > 200 µM
94 | Cn1cc(-c2cn(-c3ccc(OC(F)(F)F)cc3)c(=O)cc2OCCN2CCCC2)cn1 | in the range around 125 µM
95 | Cn1cc(-c2cn(-c3ccc(OC(F)(F)F)cc3)c(=O)cc2OCc2ccccc2)cn1 | > 200 µM
96 | CCn1nc2c(-c3cn[nH]c3)cn(-c3ccc(OC(F)(F)F)cc3)c(=O)c2n1 | < 50 µM
97 | Cc1cc(=O)n(-c2ccc(OC(F)(F)F)cc2)cc1-c1ccc2c(c1)OC(F)(F)O2 | in the range around 125 µM
